tested on: atrium; assay: Effects on the atrial effective refractory period (S1-S2 extrastimulus technique during bilateral vagal nerve stimulation) in anesthetized beagles; type: in vivo; conditions: intravenous, 0.3 mg/kg, from 5 minutes after administration, basic cycle length 300 msec
Method: Effects on the Effective Refractory Period
Beagles were anesthetized with pentobarbital sodium and thoracotomy was done along the median line under a respirator and the incision was made on the pericardium to expose the heart. An electrocardiogram (ECG) was recorded using bipolar electrodes attached to the surface of the right atrial free wall, right atrial auricle, and right ventricular free wall. The vagal nerves were stimulated using an electrostimulation device with Nichrome wires inserted into the vagal nerves in the neck bilaterally. The conditions for electrostimulation to the vagal nerves were set such that the RR intervals on ECG were prolonged by about 100 msec compared with those before the stimulation was started.
Atrial and ventricular effective refractory periods were determined by S1-S2 extrastimulus technique at basic cycle length of 300 msec during bilateral vagal nerve stimulation, using programmable electric stimulator. A train of 10 basic stimuli (S1) was followed by a premature extrastimulus (S2) at 2 times diastolic threshold.
For evaluation of drug effects, the atrial and ventricular effective refractory periods were determined before drug administration, then respective compound was administrated intravenously at the dose of 0.3 mg/kg or 0.6 mg/kg, and the atrial and ventricular effective refractory periods were determined from 5 minutes after the administration.
The results were shown as the prolongation time on the atrial and ventricular effective refractory periods, i.e. [effective refractory period after drug administration]−[effective refractory period before drug administration] (msec).

Row | SMILES | Atrial Refractory Period (prolongation time on the atrial effective refractory period)
1 | Cc1cc(C#N)nc2cc3c(cc12)OC(C)(C)[C@H](O)[C@H]3NCCc1ccccc1.O=C(O)/C=C\C(=O)O (relative stereo) [Synthesis Example 14, (3R*,4S*)-3-hydroxy-2,2,9-trimethyl-4-[(2-phenylethyl)amino]-3,4-dihydro-2H-pyrano[2,3-g]quinoline-7-carbonitrile 1 maleate] | 27 ms
2 | Cc1cc(CO)nc2cc3c(cc12)OC(C)(C)[C@H](O)[C@H]3NCCc1ccccc1.O=C(O)/C=C\C(=O)O (relative stereo) [Synthesis Example 18, (3R*,4S*)-7-hydroxymethyl-2,2,9-trimethyl-4-[(2-phenylethyl)amino]-3,4-dihydro-2H-pyrano[2,3-g]quinolin-3-ol 1 maleate] | 27 ms
3 | Cc1cc(Cl)nc2cc3c(cc12)OC(C)(C)[C@H](O)[C@H]3NCCc1ccccc1.O=C(O)/C=C\C(=O)O (relative stereo) [Synthesis Example 19, (3R*,4S*)-7-chloro-2,2,9-trimethyl-4-[(2-phenylethyl)amino]-3,4-dihydro-2H-pyrano[2,3-g]quinolin-3-ol 1 maleate] | 26 ms
4 | Cc1cc(Cl)nc2cc3c(cc12)OC(C)(C)[C@H](O)[C@H]3NCCc1ccc(F)cc1 (relative stereo) [Synthesis Example 23, (3R*,4S*)-7-chloro-4-{[2-(4-fluorophenyl)ethyl]amino}-2,2,9-trimethyl-3,4-dihydro-2H-pyrano[2,3-g]quinolin-3-ol] | 22 ms
5 | Cc1cc(Cl)nc2cc3c(cc12)OC(C)(C)[C@H](O)[C@H]3NCCc1ccccc1F (relative stereo) [Synthesis Example 24, (3R*,4S*)-7-chloro-4-{[2-(2-fluorophenyl)ethyl]amino}-2,2,9-trimethyl-3,4-dihydro-2H-pyrano[2,3-g]quinolin-3-ol] | 23 ms
6 | Cc1cc(Cl)nc2cc3c(cc12)OC(C)(C)[C@H](O)[C@H]3NCCc1ccc(Cl)cc1 (relative stereo) [Synthesis Example 25, (3R*,4S*)-7-chloro-4-{[2-(4-chlorophenyl)ethyl]amino}-2,2,9-trimethyl-3,4-dihydro-2H-pyrano[2,3-g]quinolin-3-ol] | 27 ms
7 | Cc1cc(Cl)nc2cc3c(cc12)OC(C)(C)[C@H](O)[C@H]3NCCc1ccc(N)cc1 (relative stereo) [Synthesis Example 26, (3R*,4S*)-4-{([2-(4-aminophenyl)ethyl]amino}-7-chloro-2,2,9-trimethyl-3,4-dihydro-2H-pyrano[2,3-g]quinolin-3-ol] | 24 ms
8 | Cc1cc(Cl)nc2cc3c(cc12)OC(C)(C)[C@H](O)[C@H]3NCC(O)c1ccccc1 (relative stereo) [Synthesis Example 27, (3R*,4S*)-7-chloro-4-[(2-hydroxy-2-phenylethyl)amino]-2,2,9-trimethyl-3,4-dihydro-2H-pyrano[2,3-g]quinolin-3-ol] | 32 ms
9 | Cc1cc(Cl)nc2cc3c(cc12)OC(C)(C)[C@H](O)[C@H]3NCCc1cccnc1 (relative stereo) [Synthesis Example 41, (3R*,4S*)-7-chloro-2,2,9-trimethyl-4-{[2-(3-pyridyl)ethyl]amino}-3,4-dihydro-2H-pyrano[2,3-g]quinolin-3-ol] | 31 ms
10 | Cc1cc(Cl)nc2cc3c(cc12)OC(C)(C)[C@H](O)[C@H]3NCCC1CCCC1 (relative stereo) [Synthesis Example 47, (3R*,4S*)-7-chloro-4-[2-(cyclopentylethyl)amino]-2,2,9-trimethyl-3,4-dihydro-2H-pyrano[2,3-g]quinolin-3-ol] | 24 ms
11 | Cc1cc(Cl)nc2cc3c(cc12)OC(C)(C)[C@H](O)[C@H]3NCCC1=CCCC1 (relative stereo) [Synthesis Example 48, (3R*,4S*)-7-chloro-4-[2-(1-cyclopentenylethyl)amino]-2,2,9-trimethyl-3,4-dihydro-2H-pyrano[2,3-g]quinolin-3-ol] | 23 ms
12 | CCCCCN[C@H]1c2cc3nc(Cl)cc(C)c3cc2OC(C)(C)[C@@H]1O.Cl (relative stereo) [Synthesis Example 52, (3R*,4S*)-7-chloro-2,2,9-trimethyl-4-(pentylamino)-3,4-dihydro-2H-pyrano[2,3-g]quinolin-3-ol hydrochloride] | 28 ms
13 | CCCC(O)CN[C@H]1c2cc3nc(Cl)cc(C)c3cc2OC(C)(C)[C@@H]1O (relative stereo) [Synthesis Example 58, (3R*,4S*)-7-chloro-4-[(2-hydroxypentyl)amino]-2,2,9-trimethyl-3,4-dihydro-2H-pyrano[2,3-g]quinolin-3-ol] | 28 ms
14 | CC1(C)Oc2cc3nccnc3cc2[C@H](NCCc2ccccc2)[C@H]1O.O=C(O)/C=C\C(=O)O (relative stereo) [Synthesis Example 59, (3R*,4S*)-7,7-dimethyl-9-[(2-phenylethyl)amino]-8,9-dihydro-7H-pyrano[2,3-g]quinoxalin-8-ol 1 maleate] | 22 ms
15 | CC1(C)Oc2cc3nccnc3cc2[C@H](NCCc2ccccc2F)[C@H]1O.Cl (relative stereo) [Synthesis Example 60, (3R*,4S*)-4-{[2-(2-fluorophenyl)ethyl]amino}-2,2-dimethyl-3,4-dihydro-2H-pyrano[2,3-g]quinoxalin-3-ol hydrochloride] | 22 ms
16 | CC1(C)Oc2cc3nccnc3cc2[C@H](NCCc2ccc(F)cc2)[C@H]1O.Cl (relative stereo) [Synthesis Example 61, (3R*,4S*)-9-{[2-(4-fluorophenyl)ethyl]amino}-7,7-dimethyl-8,9-dihydro-7H-pyrano[2,3-g]quinoxalin-8-ol hydrochloride] | 20 ms
17 | CC1(C)Oc2cc3c(cc2[C@H](NCCc2ccccc2)[C@H]1O)OCC(=O)N3 (relative stereo) [Synthesis Example 71, (7R*,8S*)-7-hydroxy-6,6-dimethyl-8-(2-phenylethyl)amino]-4,6,7,8-tetrahydro-1,5-dioxa-4-aza-anthracene-3-one] | 31 ms
18 | CN1C(=O)COc2cc3c(cc21)OC(C)(C)[C@H](O)[C@H]3NCCc1ccccc1.Cl (relative stereo) [Synthesis Example 73, (7R*,8S*)-7-hydroxy-4,6,6-trimethyl-8-(2-phanylethylamino)-4,6,7,8-tetrahydro-1,5-dioxa-4-aza-anthracene-3-one hydrochloride] | 31 ms

same assay, conditions: intravenous, 0.6 mg/kg, from 5 minutes after administration, basic cycle length 300 msec

Row | SMILES | Atrial Refractory Period (prolongation time on the atrial effective refractory period)
19 | Cc1ccc2cc3c(cc2n1)C(NCCc1ccccc1)C(O)C(C)(C)O3.O=C(O)/C=C\C(=O)O (racemic) [Synthesis Example 4, (±)-trans-2,2,7-Trimethyl-4-[(2-phenylethyl)amino]-3,4-dihydro-2H-pyrano[2,3-g]quinolin-3-ol 3/2 maleate] | 30 ms
20 | CC1(C)Oc2cc3c(cc2C(NCCc2ccccc2)C1O)NC(=O)CO3 (centres unmarked) [Synthesis Example 74, 7-Hydroxy-6,6-dimethyl-8-(2-phenylethylamino)-7,8-dihydro-1H,6H-4,5-dioxa-1-aza-anthracene-2-one] | 25 ms

tested on: not given; assay: not given; conditions: not given

Row | melting point | SMILES
21 | 199 to 203 °C | Cc1cnc2cc3c(cc2c1C)OC(C)(C)C(O)C3NCCc1ccccc1.O=C(O)/C=C\C(=O)O (racemic) [Synthesis Example 3, (±)-trans-2,2,8,9-Tetramethyl-4-[(2-phenylethyl)amino]-3,4-dihydro-2H-pyrano[2,3-g]quinolin-3-ol 1 maleate]
22 | 141 to 143 °C | CC1(C)Oc2ccc3nc(Cl)ccc3c2[C@@H](NCCc2ccccc2)[C@@H]1O (racemic) [Synthesis Example 9, (±)-trans-8-Chloro-3,3-dimethyl-1-[(2-phenylethyl)amino]-2,3-dihydro-1H-pyrano[3,2-f]quinolin-2-ol]
23 | 93 to 96 °C | CC1(C)Oc2ccc3nc(C#N)ccc3c2[C@@H](NCCc2ccccc2)[C@@H]1O (racemic) [Synthesis Example 10, (±)-trans-2-Hydroxy-3,3-dimethyl-1-[(2-phenylethyl)amino]-2,3-dihydro-1H-pyrano[3,2-f]quinoline-8-carbonitrile]
24 | 197 to 199 °C | CC1(C)Oc2ccc3nc(C(N)=O)ccc3c2[C@@H](NCCc2ccccc2)[C@@H]1O (racemic) [Synthesis Example 11, (±)-trans-2-Hydroxy-3,3-dimethyl-1-[(2-phenylethyl)amino]-2,3-dihydro-1H-pyrano[3,2-f]quinoline-8-carboxamide]
25 | 318 to 320 °C (dec.) | Cc1cc(Cl)nc2cc3c(cc12)OC(C)(C)[C@H](O)[C@H]3NCCC1CCOCC1.Cl (relative stereo)
26 | 226 to 230 °C (dec.) | CCCCCN[C@H]1c2cc3c(cc2OC(C)(C)[C@@H]1O)c(C)cc(Cl)[n+]3[O-].Cl (relative stereo)

Reference: patent US7964623B2, “Tricyclic benzopyrane compound” (Nissan Chemical Industries Ltd., priority 2004, dated 2011)
